The subject of one test is Toxoplasma gondii. In words: MMV: A total of 100ul of inoculum was added to each well (parasite/cell ratio, ~10:1; final volume, 200 ul). Six hours after inoculation, nonadherent parasites were removed, and 100 ul of complete DMEM (1% penicillin-streptomycin, 3% FBS) supplemented with inhibitors at different concentrations (2-fold serial dilutions starting from 30 uM) was added to all except the negative-control wells. Positive controls, consisting of pyrimethamine (PYR) and sulfadiazine (SDZ) (20-mg/ml stocks in DMSO), were tested at a 2mg/ml final concentration. Each test was performed in triplicate. The format is functional, organism-based. The note with it: 6 h.

The test system of the next test is Entamoeba histolytica. Briefly: MMV: Primary screening was performed with each compound at a 30 uM final concentration and in triplicate in sealed 96-well polystyrene microtiter plates. Parasite inocula (100 ul) comprising 20000 parasites/ml were added to each well and grown at 37 degrees C in a humidified atmosphere of 5% CO2 for 72 h. Positive controls consisted of metronidazole at 1 mg/ml. The growth of E. histolytica trophozoites in each well was determined microscopically by measuring the diameters of the confluent cells in drug-containing wells relative to those in the nega- tive-control wells. The format is functional, organism-based.

With `CN(N=O)C1=C(NC2CCCCC2)C(=O)c2ccccc2C1=O`, the IC50 in the test with Toxoplasma gondii and in the test with Entamoeba histolytica was over 30 µM throughout.

Regarding `O=C1c2ccc3c4c(ccc(c24)C(=O)N1CCCCO)C(=O)N(CCCCO)C3=O`, the IC50 with Toxoplasma gondii and with Entamoeba histolytica was over 30 µM each time.

Consider `COc1cccc(C(=O)Nc2ccc(-c3nc4ccccc4[nH]3)cc2)c1`, for which the IC50 in the test on Toxoplasma gondii and with Entamoeba histolytica was over 30 µM in each case.

In the case of `Cc1cccc(Nc2nc(N)c3ccccc3n2)c1`, the IC50 in the test on Toxoplasma gondii and in the test on Entamoeba histolytica was over 30 µM in each case.

Take `CC(=O)NCCc1nc2ccccc2n1Cc1ccc(C(C)C)cc1`: the IC50 in the test on Toxoplasma gondii and in the test on Entamoeba histolytica was over 30 µM in each case.

`Oc1ccccc1CN1CCC2(CCCN(Cc3ccccc3F)C2)C1` (centres undefined): the IC50 in the test with Toxoplasma gondii and in the test on Entamoeba histolytica was over 30 µM in each case.

As for `CCCCNCC(O)(c1ccc(Cl)cc1)c1ccc(Cl)cc1`, the IC50 in the test on Toxoplasma gondii and in the test with Entamoeba histolytica was over 30 µM each time.

Take `CCN(CC)c1ccc(NC(=O)c2cccs2)cc1`: the IC50 in the test on Toxoplasma gondii and with Entamoeba histolytica was over 30 µM throughout.

Regarding `O=C(Nc1cccc(C2=NCCN2)c1)Nc1cccc(C2=NCCN2)c1` [IMIDOCARB], the IC50 in the test with Toxoplasma gondii and in the test with Entamoeba histolytica was over 30 µM in each case.

In the case of `CC1CN(C(=O)c2sc3ccccc3c2Cl)CC(C)O1` (centres undefined), the IC50 with Toxoplasma gondii and with Entamoeba histolytica was over 30 µM each time.

On to `O=[N+]([O-])c1ccc(C=NNc2nc3ccccc3[nH]2)cc1`, for which the IC50 with Toxoplasma gondii and in the test with Entamoeba histolytica was over 30 µM in each case.

Turning to `O=C(NNc1cc(N2CCCC2)nc(N2CCCC2)n1)c1ccccc1`, the IC50 in the test on Toxoplasma gondii and with Entamoeba histolytica was over 30 µM each time.

As to `COc1ccc(-c2nc3cc(Cc4ccc5[nH]c(-c6ccc(OC)cc6)nc5c4)ccc3[nH]2)cc1`, the IC50 with Toxoplasma gondii and in the test on Entamoeba histolytica was over 30 µM throughout.

In the case of `CCCOCc1cc(CN2CCN(c3cccc(Cl)c3)CC2)c(O)c2ncccc12`, the IC50 in the test with Toxoplasma gondii and in the test on Entamoeba histolytica was over 30 µM each time.

Take `N=c1c2ccccc2nnn1-c1cccc(C(F)(F)F)c1`: the IC50 with Toxoplasma gondii and in the test on Entamoeba histolytica was over 30 µM throughout.

Turning to `Oc1ccc(-c2nc(-c3ccc4oc5ccc(-c6[nH]c(-c7ccc(O)cc7)nc6-c6ccccc6)cc5c4c3)c(-c3ccccc3)[nH]2)cc1`, the IC50 with Toxoplasma gondii and in the test with Entamoeba histolytica was over 30 µM throughout.

For `CCOc1cc(Br)c(C(C)NC(=O)c2cccc(OC)c2)cc1OCC` (centres undefined), the IC50 in the test on Toxoplasma gondii and in the test with Entamoeba histolytica was over 30 µM each time.

Take `CCOC(=O)c1cnc2ccc(OC)cc2c1Nc1ccc(N2CCN(C)CC2)cc1`: the IC50 in the test with Toxoplasma gondii and in the test on Entamoeba histolytica was over 30 µM each time.

As for `CCOc1cc(Cl)c(C(C)NC(=O)c2cccc(OC)c2)cc1OCC` (centres undefined), the IC50 with Toxoplasma gondii and with Entamoeba histolytica was over 30 µM each time.

Turning to `CC(=O)Nc1nnc(SCc2c(C)cc(C(C)(C)C)cc2C)s1`, the IC50 with Toxoplasma gondii and in the test on Entamoeba histolytica was over 30 µM each time.

`c1ccc2c(NCCCCCCNc3c4c(nc5ccccc35)CCCC4)c3c(nc2c1)CCCC3`: the IC50 in the test with Toxoplasma gondii and in the test with Entamoeba histolytica was over 30 µM throughout.

Consider `Cc1cccc(N2C(=O)C3C(C2=O)C2(c4ccccc4)C(=O)C3(c3ccccc3)C(c3ccc4c(c3)OCO4)=C2c2ccc3c(c2)OCO3)c1` (centres undefined), for which the IC50 in the test on Toxoplasma gondii and in the test with Entamoeba histolytica was over 30 µM each time.

As for `COc1nc(Nc2ccc(C(C)C)cc2)nc(OC)n1`, the IC50 with Toxoplasma gondii and with Entamoeba histolytica was over 30 µM throughout.

As to `CCC1(C)CC(CCNCc2ccccc2O)(c2ccc(C)cc2)CCO1` (centres undefined), the IC50 with Toxoplasma gondii and with Entamoeba histolytica was over 30 µM in each case.

As to `OC1=C2C(=Nc3ccccc3SC2c2ccc(Br)cc2)c2ccccc21` (centres undefined), the IC50 in the test with Toxoplasma gondii and in the test on Entamoeba histolytica was over 30 µM throughout.

As to `COc1ccc(-c2cn3c(C(=O)Nc4ccccc4Cl)c(-c4ccccc4)c4c3n2CCCC4)cc1`, the IC50 with Toxoplasma gondii and in the test with Entamoeba histolytica was over 30 µM throughout.

With `CCN(CC)CCNc1ccnc2cc3ccccc3cc12`, the IC50 in the test with Toxoplasma gondii and in the test with Entamoeba histolytica was over 30 µM each time.

Turning to `CC1CCN(Cc2c(O)ccc3cc(-c4nc5ccccc5s4)c(=O)oc23)CC1`, the IC50 in the test with Toxoplasma gondii and in the test with Entamoeba histolytica was over 30 µM each time.

On to `O=C(NCc1ccco1)C1CCN(S(=O)(=O)c2ccc(Cl)cc2)CC1`, for which the IC50 in the test on Toxoplasma gondii and in the test with Entamoeba histolytica was over 30 µM each time.

In the case of `CCCCOC(=O)c1ccc(Nc2cc(C)nc3ccc(OC)cc23)cc1`, the IC50 with Toxoplasma gondii and in the test with Entamoeba histolytica was over 30 µM in each case.

For the compound `Cc1ccc(-c2nc3ccccc3o2)cc1NCc1cc(Cc2ccccc2)ccc1O`, the IC50 with Toxoplasma gondii and in the test with Entamoeba histolytica was over 30 µM in each case.

As for `COc1cccc(C(=O)NC(c2ccc(C)cc2)c2cc(Cl)c3cccnc3c2O)c1` (centres undefined), the IC50 in the test with Toxoplasma gondii and in the test with Entamoeba histolytica was over 30 µM in each case.

For `O=c1cc(NC2CCN(CCCc3ccccc3)CC2)c2cc(Cl)ccc2o1`, the IC50 with Toxoplasma gondii and with Entamoeba histolytica was over 30 µM in each case.

With `CCOc1ccc(Nc2ccnc3cc(Cl)ccc23)cc1`, the IC50 in the test on Toxoplasma gondii and with Entamoeba histolytica was over 30 µM each time.

For the compound `Cc1cc(Nc2ccc(C)c(Cl)c2)n2nc(C(F)(F)F)nc2n1`, the IC50 in the test on Toxoplasma gondii and in the test on Entamoeba histolytica was over 30 µM in each case.

Regarding `CCOC(=O)c1cn(CC)c2cc(N(C)CCc3ccc(OC)c(OC)c3)c(F)cc2c1=O`, the IC50 with Toxoplasma gondii and in the test with Entamoeba histolytica was over 30 µM in each case.

As for `O=C(Nc1ccccc1O)c1ccc(Oc2cccc(C(=O)Nc3ccccc3O)c2)cc1`, the IC50 in the test with Toxoplasma gondii is 13.2 µM; with Entamoeba histolytica it was over 30 µM.

Turning to `Cc1cc(C)c2nc(N3CCC(C(=O)NCCCN4CCC(N5CCCCC5)CC4)CC3)sc2c1`, the IC50 with Toxoplasma gondii and in the test on Entamoeba histolytica was over 30 µM each time.

`CCn1c2c(c(=N)c3c1CCC3)CCCC2`: the IC50 in the test on Toxoplasma gondii and in the test on Entamoeba histolytica was over 30 µM throughout.

`CCOc1ccc(Nc2c3ccccc3nc3ccccc23)cc1`: the IC50 in the test with Toxoplasma gondii and in the test on Entamoeba histolytica was over 30 µM throughout.

Turning to `Cc1c(C)n(CC(O)CNC2CCCCC2C)c2ccccc12` (centres undefined), the half-inhibitory concentration (IC50) with Toxoplasma gondii and in the test with Entamoeba histolytica was over 30 µM each time.

As to `COc1cccc(Nc2nc(N)c3ccccc3n2)c1`, the results for the IC50 in the test with Toxoplasma gondii and in the test on Entamoeba histolytica were 28.1 µM and over 30 µM, respectively.

Turning to `Cc1cc(Nc2ccc(Cl)cc2)n2nc(C(F)(F)F)nc2n1`, the IC50 with Toxoplasma gondii and with Entamoeba histolytica was over 30 µM each time.

Turning to `Cc1ccc(-c2cc3c(nn2)-c2ccccc2C3=O)cc1`, the IC50 in the test on Toxoplasma gondii and in the test on Entamoeba histolytica was over 30 µM throughout.

On to `C[n+]1c2ccccc2nc2ccc(NCCO)cc21`, for which the IC50 with Toxoplasma gondii and with Entamoeba histolytica was over 30 µM each time.

Take `CC1CC(C)CN(C(=O)c2ccc(Cl)cc2Cl)C1` (centres undefined): the IC50 with Toxoplasma gondii and in the test on Entamoeba histolytica was over 30 µM in each case.

Turning to `Cc1ccccc1OCCSc1nc2ccc(NC(=O)c3ccccc3)cc2s1`, the 50% inhibitory concentration (IC50) with Toxoplasma gondii and in the test on Entamoeba histolytica was over 30 µM throughout.

For the compound `CCN(CC)S(=O)(=O)c1ccc(-c2csc(Nc3ccc(C)c(C)c3)n2)cc1`, the IC50 with Toxoplasma gondii and in the test on Entamoeba histolytica was over 30 µM throughout.

As for `CCOc1c(Cl)cc(CNC(C)C(O)c2ccccc2)cc1OC` (centres undefined), the IC50 with Toxoplasma gondii and in the test with Entamoeba histolytica was over 30 µM throughout.

Turning to `COc1ccc2c(c1)OC(O)(C(F)(F)C(F)(F)F)CC2=O` (centres undefined), the IC50 in the test with Toxoplasma gondii and in the test on Entamoeba histolytica was over 30 µM in each case.

Turning to `O=C(Nc1ccc(N2CCN(Cc3ccccc3)CC2)cc1)c1cccs1`, the IC50 in the test on Toxoplasma gondii and with Entamoeba histolytica was over 30 µM each time.

In the case of `CCCCCCC(O)(c1ccc(F)cc1)C(CN1CCOCC1)c1ccccc1` (centres undefined), the IC50 with Toxoplasma gondii and in the test with Entamoeba histolytica was over 30 µM in each case.

`O=C(Nc1ccc(Cl)c(Cl)c1)Nc1ccc(Cl)c(Cl)c1`: the IC50 with Toxoplasma gondii and in the test on Entamoeba histolytica was over 30 µM throughout.

Turning to `CCOc1ccc(N2C(N)=NC(N)=NC2(C)C)cc1`, the IC50 in the test on Toxoplasma gondii and in the test with Entamoeba histolytica was over 30 µM throughout.

Regarding `COc1ccc(Nc2nc(N/N=C/c3ccc(O)cc3)nc(Nc3ccc([N+](=O)[O-])cc3)n2)cc1`, the IC50 in the test with Toxoplasma gondii and in the test with Entamoeba histolytica was over 30 µM each time.

For `O=C(Nc1ccc(CN2CCOCC2)cc1)c1ccc(-c2cc(Cl)ccc2Cl)o1`, the IC50 in the test on Toxoplasma gondii and in the test on Entamoeba histolytica was over 30 µM throughout.

In the case of `COc1ccc(C(=O)C(CCC(CNC(C)(C)C)C(=O)c2ccc(OC)cc2)CNC(C)(C)C)cc1` (centres undefined), the IC50 was 8.23 µM in the test with Toxoplasma gondii and over 30 µM in the test with Entamoeba histolytica.

In the case of `COc1ccc2sc(N(Cc3cccnc3)C(=O)c3ccc(C#N)cc3)nc2c1`, the IC50 in the test on Toxoplasma gondii and in the test on Entamoeba histolytica was over 30 µM each time.

Consider `CCn1c(CN2CCN(Cc3ccccc3)CC2)nc2cc(NC(=O)c3cccs3)ccc21`, for which the half-inhibitory concentration (IC50) with Toxoplasma gondii and in the test with Entamoeba histolytica was over 30 µM each time.

Take `Cc1cc(Nc2cccc(F)c2)nc(NCc2ccccc2)n1`: the half-maximal inhibitory concentration (IC50) in the test with Toxoplasma gondii and in the test on Entamoeba histolytica was over 30 µM in each case.

Consider `Cc1ccc(Nc2nc(-c3ccccn3)cs2)cc1`, for which the IC50 with Toxoplasma gondii and in the test with Entamoeba histolytica was over 30 µM in each case.

As for `Oc1ccc(Cl)cc1CNc1nc2ccccc2[nH]1`, the results for the IC50 with Toxoplasma gondii and in the test with Entamoeba histolytica were 26.8 µM and over 30 µM, respectively.

As to `CCOc1ccccc1NC(=O)CN1CCN(C(=O)c2ccco2)CC1`, the figures for the IC50 with Toxoplasma gondii and in the test on Entamoeba histolytica were 0.19 µM and over 30 µM, respectively.

For `CC(C)(C)c1ccc(C2CC3=Nc4ccccc4N(C(=O)c4ccccc4Cl)C(c4ccc(F)cc4)C3=C(O)C2)cc1` (centres undefined), the IC50 in the test on Toxoplasma gondii and in the test with Entamoeba histolytica was over 30 µM throughout.

For the compound `Oc1ccc(Br)cc1CN1CCN(Cc2ccc(Cl)cc2)CC1`, the IC50 with Toxoplasma gondii was 14.5 µM; with Entamoeba histolytica it was over 30 µM.

As for `O=C(NC(c1ccccc1)c1ccc2cccnc2c1O)c1ccccc1` (centres undefined), the IC50 with Toxoplasma gondii and with Entamoeba histolytica was over 30 µM each time.

`CC(C)(C)CC(C)(C)NCC(O)COc1ccc2c(c1)CCC2` (centres undefined): the IC50 in the test with Toxoplasma gondii and in the test with Entamoeba histolytica was over 30 µM in each case.

Broadly, the IC50 is the concentration that inhibits the measured activity by half.

For the origin of these results see ChEMBL document CHEMBL3301448, “MMV Malaria Box screening against Toxoplasma gondii and Entamoeba histolytica”.
